The values below come from patent EP4495227A1, “CO-CULTURES OF ORGANOIDS AND STROMAL CELLS” (HUB Organoids IP B.V., priority 2023, dated 2025).

Test [1] addresses type I activin/nodal receptor ALK4. The conditions noted are these: Tocris catalog description; cited from earlier work.
Test [2] has as its target type I nodal receptor ALK7. The conditions noted are these: Tocris catalog description; cited from earlier work.
Test [3] relates to ALK-1, -2, -3, -6 and MAPK activity. The conditions noted are these: Tocris catalog description; cited from earlier work.
Test [4] concerns co-cultures of the fibroblasts and organoids. The test can be described thus: Imaging of organoid morphology and area in organoid-fibroblast co-cultures (Calcein AM stain). The class given is cell-based, human. The conditions noted are these: 10 µM tofacitinib; Figure 5A; measured in accordance with Example 4. As for the experimental part: (§1) In Examples 4-9, fibroblast cultures, organoid cultures, and co-cultures of the fibroblasts and organoids, were prepared according to Examples 1-2. OSM (1 ng/mL) and IL-1β (1 ng/mL) were added to the co-cultures according to Example 3 where "proinflammatory stimuli" or "proinflammatory stimulation" are specified in Examples 4-9. Co-cultures were then incubated on plates for 72 hours at 37°C and 5% CO2 prior to cytokine or caspase analysis, or for 96 hours at 37°C and 5% CO2 prior to imaging analysis.
Organoids in co-culture were first stained with Calcein AM. 48 hours after the organoids and fibroblasts were combined in co-culture, 50 µL DMSO was added to a vial of Calcein AM and mixed. 88 µL of the mixture was added to 4,312 µL of Ad-DF+++ media. 10 µL of the final Calcein AM mixture was added to co-cultures before 5-10 seconds of shaking in a Tecan D300. Plates were then incubated for 2 hours at 37°C and 5% CO2. Imaging were then performed to assess organoid morphology.

A further test concerns caspase 3/7 activity. Kind of test: Caspase-Glo assay of apoptosis in organoid-fibroblast co-cultures challenged with TNF and IFNγ. The class given is cell-based, human. The following applies: 10 µM tofacitinib; upon exposure to inflammatory cytokines; Figure 5B; measured in accordance with Example 6. On the procedure:
as §1
72 hours after organoids and fibroblasts were combined in co-culture, apoptosis in co-culture was triggered using inflammatory stimuli (in the form of damage-inducing cytokines), and measured 24 hours later, in co-cultures prepared using proinflammatory stimuli and in co-cultures not prepared using proinflammatory stimuli.
Stock solutions of TNF and IFNγ were diluted 1:1 with 0.6% Tween in PBS, and were added to the co-cultures at concentrations of 15 ng/mL and 15 ng/mL respectively. Plates were then incubated for 24 hours.
Apoptosis was assessed using a Caspase-Glo assay (e.g. Promega) to determine relative caspase 3/7 activity. Briefly, 95 µL of room-temperature caspase reagent was added to each plate. Plates were then shaken for 1 minute before incubation in the dark at room temperature for 30 minutes. […]

As to `Cc1cccc(-c2nn(C(=S)Nc3ccccc3)cc2-c2ccnc3ccccc23)n1` [A83-01], the IC50 in test [1] was 45 nM; in test [2] it was 7.5 nM. For the same compound, the “inhibition of ALK-1, -2, -3, -6 and MAPK activity” value in test [3] is on record as “only weakly inhibits”.

In the case of `C[C@@H]1CCN(C(=O)CC#N)C[C@@H]1N(C)c1ncnc2[nH]ccc12` [tofacitinib], the change in morphology entry in test [4] was “small change”. Moreover, the caspase activity entry in the test on caspase 3/7 activity is given as “greatly diminishes”.
